Laboratory results taken from ChEMBL document CHEMBL3774317, “Design and synthesis of novel tamoxifen analogues that avoid CYP2D6 metabolism” (Eur J Med Chem, 2016).

Legend:
Assay type in all cases: functional
MCF7 = test: Cytotoxicity against human MCF7 cells assessed as cell growth at 10^-8 M after 48 hrs by SRB assay; details: MCF7, 48 h, read-out: Activity
[1] = Cytotoxicity against human LOXIMVI cells assessed as cell growth at 10^-4 M after 48 hrs by SRB assay; details: LOX IMVI, read-out: Activity
M14 [2] = test: Cytotoxicity against human M14 cells assessed as cell growth at 10^-4 M after 48 hrs by SRB assay; details: M14, 48 h, read-out: Activity
[3] = Cytotoxicity against human HCT116 cells assessed as cell growth at 10^-5 M after 48 hrs by SRB assay; details: HCT-116, 48 h, read-out: Activity
SK-MEL-28 = test: Cytotoxicity against human SK-MEL-28 cells assessed as cell growth at 10^-6 M after 48 hrs by SRB assay; details: SK-MEL-28, 48 h, read-out: Activity
NCI-H226 [4] = test: Cytotoxicity against human NCI-H226 cells assessed as cell growth at 10^-4 M after 48 hrs by SRB assay; details: NCI-H226, 48 h, read-out: Activity
[5] = Cytotoxicity against human HOP62 cells assessed as cell growth at 10^-5 M after 48 hrs by SRB assay; details: HOP-62, 48 h, read-out: Activity
[6] = Cytotoxicity against human UO31 cells assessed as cell growth at 10^-8 M after 48 hrs by SRB assay; details: UO-31, 48 h, read-out: Activity
SN12C = test: Cytotoxicity against human SN12C cells assessed as cell growth at 10^-5 M after 48 hrs by SRB assay; details: read-out: Activity
MDA-MB-435 = test: Cytotoxicity against human MDA-MB-435 cells assessed as cell growth at 10^-8 M after 48 hrs by SRB assay; details: MDA-MB-435, 48 h, read-out: Activity
K562 [7] = test: Cytotoxicity against human K562 cells assessed as cell growth at 10^-7 M after 48 hrs by SRB assay; details: K562, 48 h, read-out: Activity
NCI-H322M = test: Cytotoxicity against human NCI-H322M cells assessed as cell growth at 10^-8 M after 48 hrs by SRB assay; details: read-out: Activity
M14 [8] = test: Cytotoxicity against human M14 cells assessed as cell growth at 10^-5 M after 48 hrs by SRB assay; details: M14, 48 h, read-out: Activity
[9] = Cytotoxicity against human TK10 cells assessed as cell growth at 10^-8 M after 48 hrs by SRB assay; details: TK-10, 48 h, read-out: Activity
[10] = Cytotoxicity against human SF539 cells assessed as cell growth at 10^-6 M after 48 hrs by SRB assay; details: SF-539, 48 h, read-out: Activity
[11] = Cytotoxicity against human OVCAR5 cells assessed as cell growth at 10^-5 M after 48 hrs by SRB assay; details: OVCAR-5, 48 h, read-out: Activity
[12] = Cytotoxicity against human OVCAR3 cells assessed as cell growth at 10^-7 M after 48 hrs by SRB assay; details: OVCAR-3, 48 h, read-out: Activity
NCI-H226 [13] = test: Cytotoxicity against human NCI-H226 cells assessed as cell growth at 10^-8 M after 48 hrs by SRB assay; details: NCI-H226, 48 h, read-out: Activity
[14] = Cytotoxicity against human NCI-ADR-RES cells assessed as cell growth at 10^-8 M after 48 hrs by SRB assay; details: read-out: Activity
[15] = Cytotoxicity against human OVCAR4 cells assessed as cell growth at 10^-4 M after 48 hrs by SRB assay; details: OVCAR-4, 48 h, read-out: Activity
NCI-H522 = test: Cytotoxicity against human NCI-H522 cells assessed as cell growth at 10^-6 M after 48 hrs by SRB assay; details: NCI-H522, 48 h, read-out: Activity
NCI-H226 [16] = test: Cytotoxicity against human NCI-H226 cells assessed as cell growth at 10^-7 M after 48 hrs by SRB assay; details: NCI-H226, 48 h, read-out: Activity
[17] = Cytotoxicity against human COLO205 cells assessed as cell growth at 10^-8 M after 48 hrs by SRB assay; details: COLO 205, 48 h, read-out: Activity
[18] = Cytotoxicity against human SF295 cells assessed as cell growth at 10^-7 M after 48 hrs by SRB assay; details: SF-295, 48 h, read-out: Activity
[19] = Cytotoxicity against human SW620 cells assessed as cell growth at 5 nM after 48 hrs by SRB assay; details: SW-620, 48 h, read-out: Activity
K562 [20] = test: Cytotoxicity against human K562 cells assessed as cell growth at 50 nM after 48 hrs by SRB assay; details: K562, 48 h, read-out: Activity
HT-29 = test: Cytotoxicity against human HT-29 cells assessed as cell growth at 50 uM after 48 hrs by SRB assay; details: HT-29, 48 h, read-out: Activity
CCRF-CEM [21] = test: Cytotoxicity against human CCRF-CEM cells assessed as cell growth at 50 uM after 48 hrs by SRB assay; details: read-out: Activity
CCRF-CEM [22] = test: Cytotoxicity against human CCRF-CEM cells assessed as cell growth at 5 nM after 48 hrs by SRB assay; details: read-out: Activity
[23] = Cytotoxicity against human UO31 cells assessed as cell growth at 5 nM after 48 hrs by SRB assay; details: UO-31, 48 h, read-out: Activity
[24] = Cytotoxicity against human UACC62 cells assessed as cell growth at 5 uM after 48 hrs by SRB assay; details: UACC-62, 48 h, read-out: Activity
[25] = Cytotoxicity against human HOP62 cells assessed as cell growth at 5 nM after 48 hrs by SRB assay; details: HOP-62, 48 h, read-out: Activity
[26] = Cytotoxicity against human TK10 cells assessed as cell growth at 0.5 uM after 48 hrs by SRB assay; details: TK-10, 48 h, read-out: Activity
[27] = Cytotoxicity against human OVCAR4 cells assessed as cell growth at 50 uM after 48 hrs by SRB assay; details: OVCAR-4, 48 h, read-out: Activity
[28] = Cytotoxicity against human BT549 cells assessed as cell growth at 0.5 uM after 48 hrs by SRB assay; details: BT-549, 48 h, read-out: Activity
786-0 = test: Cytotoxicity against human 786-0 cells assessed as cell growth at 50 uM after 48 hrs by SRB assay; details: 786-0, 48 h, read-out: Activity
[29] = Cytotoxicity against human UO31 cells assessed as cell growth at 50 nM after 48 hrs by SRB assay; details: UO-31, 48 h, read-out: Activity
[30] = Cytotoxicity against human MOLT4 cells assessed as cell growth at 5 uM after 48 hrs by SRB assay; details: MOLT-4, 48 h, read-out: Activity
NCI-H226 [31] = test: Cytotoxicity against human NCI-H226 cells assessed as cell growth at 5 nM after 48 hrs by SRB assay; details: NCI-H226, 48 h, read-out: Activity
KM12 = test: Cytotoxicity against human KM12 cells assessed as cell growth at 50 uM after 48 hrs by SRB assay; details: KM12, 48 h, read-out: Activity
ACHN = test: Cytotoxicity against human ACHN cells assessed as cell growth at 5 uM after 48 hrs by SRB assay; details: read-out: Activity
[32] = Cytotoxicity against human OVCAR8 cells assessed as cell growth at 50 nM after 48 hrs by SRB assay; details: OVCAR-8, 48 h, read-out: Activity

C/C(=C(/c1ccc(O)cc1)c1ccc(OCCN2CCCC2)cc1)c1ccccc1
growth at 0.01 µM (MCF7): 44%
growth at 100 µM [1]: -93%
growth at 100 µM (M14 [2]): -96%
growth at 10 µM [3]: 1%
growth at 1 µM (SK-MEL-28): 85%
growth at 100 µM (NCI-H226 [4]): -62%
growth at 10 µM [5]: -51%
growth at 0.01 µM [6]: 93%
growth at 10 µM (SN12C): 48%
growth at 0.01 µM (MDA-MB-435): 93%
growth at 0.1 µM (K562 [7]): 96%
growth at 0.01 µM (NCI-H322M): 97%
growth at 10 µM (M14 [8]): -58%
growth at 0.01 µM [9]: 96%
growth at 1 µM [10]: 91%
growth at 10 µM [11]: 46%
growth at 0.1 µM [12]: 99%
growth at 0.01 µM (NCI-H226 [13]): 91%
growth at 0.01 µM [14]: 99%
growth at 100 µM [15]: -96%
growth at 1 µM (NCI-H522): 92%
growth at 0.1 µM (NCI-H226 [16]): 95%
growth at 0.01 µM [17]: 93%
growth at 0.1 µM [18]: 94%

CCCCCCCCCC(=O)Oc1ccc(/C(=C(/C)c2ccccc2)c2ccc(OCCN3CCCC3)cc2)cc1
growth at 0.005 µM [19]: 96%
growth at 0.05 µM (K562 [20]): 95%
growth at 50 µM (HT-29): -89%
growth at 50 µM (CCRF-CEM [21]): -47%
growth at 0.005 µM (CCRF-CEM [22]): 95%
growth at 0.005 µM [23]: 95%
growth at 5 µM [24]: 100%
growth at 0.005 µM [25]: 103%
growth at 0.5 µM [26]: 90%
growth at 50 µM [27]: -87%
growth at 0.5 µM [28]: 83%
growth at 50 µM (786-0): -84%
growth at 0.05 µM [29]: 89%
growth at 5 µM [30]: 82%
growth at 0.005 µM (NCI-H226 [31]): 93%
growth at 50 µM (KM12): -86%
growth at 5 µM (ACHN): 88%
growth at 0.05 µM [32]: 101%
